# Assay results published in article PMC9386795 (ACS Omega, 2022).
# “Also recorded” adds a separate entry of the source.
# How the values were obtained:
# [1] = system: methicillin susceptible SA (MSSA), S. aureus ATCC 29213; assay: Broth microdilution MIC assay against MSSA; details: for MIC: Staphylococcus aureus, ATCC29213|MSSA, read-out: MSSA MIC
# [2] = system: wild-type PA (WTPA), P. aeruginosa ATCC 9027; assay: Broth microdilution MIC assay against WTPA; details: for MIC: Pseudomonas aeruginosa, ATCC9027, read-out: WTPA MIC
# PA ATP synthase = PA ATP synthase (Pseudomonas aeruginosa, UniProt Q9HT15); assay: ATP synthesis assay with PA inverted membrane vesicles; assay type: biochemical; details: for inhibition of PA ATP synthase (in words): PA inverted membrane vesicles; for extent of inhibition of ATP synthesis activity at highest concentration: 128 μg/mL compound
# [3] = system: electron transport chain in PA vesicles; assay: Electron transport chain activity; assay type: biochemical, Pseudomonas aeruginosa; details: 64 μg/mL compound, NADH
# PA [4] = details: cited from earlier work
# PA [5] = assay: Adjuvant assay with pentamidine, PA growth in liquid culture; assay type: cell-based, Pseudomonas aeruginosa; details: 50 and 100 μM pentamidine, compared to compound alone
# [6] = n = 3, >85% reduction in growth at OD 590 nm
MIC [1],MIC [2],inhibition of PA ATP synthase (in words) (PA ATP synthase),extent of inhibition of ATP synthesis activity at highest concentration (PA ATP synthase),Compound,reduction of PA growth when co-dosed with pentamidine (in words) (PA [5]),further results
64 µg/mL,–,–,–,"CSc1nc2ccccc2cc1C=O [Compound 6, 2-(Methylthio)quinoline-3-carbaldehyde]",–,–
> 128 µg/mL,> 128 µg/mL,–,–,"CCOC(=O)C1=C(C)NC(=O)NC1c1cc2ccccc2nc1OC (stereo not shown) [Compound 9, Ethyl 4-(2-Methoxyquinolin-3-yl)-6-methyl-2-oxo-1,2,3,4-tetrahydropyrimidine-5-carboxylate]",–,–
> 128 µg/mL,> 128 µg/mL,dose-dependent inhibition,–,"COc1nc2ccccc2cc1/C=N/NC(=O)c1ccccc1 [Compound 10, (E)-N′-((2-Methoxyquinolin-3-yl)methylene)benzohydrazide]",–,IC50 (PA ATP synthase): 6.55 to 55.7 µM; H+ gradient formation by the electron transport chain [3]: significant inhibition
> 128 µg/mL,> 128 µg/mL,–,–,"COc1nc2ccccc2cc1/C=N/N=C/c1cc2ccccc2nc1OC [Compound 11, (1E,2E)-1,2-Bis((2-methoxyquinolin-3-yl)methylene)hydrazine]",–,MIC (PA [4]; PA): 80 µg/mL
> 128 µg/mL,> 128 µg/mL,–,–,"COc1nc2ccccc2cc1/C=N/NC(N)=S [Compound 12, (E)-2-((2-Methoxyquinolin-3-yl)methylene)hydrazine-1-carbothioamide]",–,activity against PA (in words) (PA [4]; compared with 11): weaker activity
> 128 µg/mL,> 128 µg/mL,–,–,"COC(=O)[C@H](C)NCc1cc2ccccc2nc1OC [Compound 14, Methyl ((2-Methoxyquinolin-3-yl)methyl)-L-alaninate]",–,–
> 128 µg/mL,> 128 µg/mL,–,–,"COC(=O)[C@@H](CCSC)NCc1cc2ccccc2nc1OC [Compound 16, Methyl ((2-Methoxyquinolin-3-yl)methyl)-D-methioninate]",–,–
64 µg/mL,> 256 µg/mL,dose-dependent inhibition,not complete,"COC(=O)[C@@H](CCSC)NCc1cc2ccccc2nc1SC [Compound 17, Methyl ((2-(Methylthio)quinolin-3-yl)methyl)-D-methioninate]",statistically significant reduction,–
> 128 µg/mL,> 256 µg/mL,dose-dependent inhibition,complete inhibition,"COC(=O)[C@H](Cc1c[nH]c2ccccc12)NCc1cc2ccccc2nc1OC [Compound 18, Methyl ((2-Methoxyquinolin-3-yl)methyl)-L-tryptophanate]",statistically significant reduction; also recorded: largest reduction in PA growth of the set,–
> 128 µg/mL,> 256 µg/mL,dose-dependent inhibition,not complete,"COC(=O)[C@H](Cc1c[nH]c2ccccc12)NCc1cc2ccccc2nc1SC [Compound 19, Methyl ((2-(Methylthio)quinolin-3-yl)methyl)-L-tryptophanate]",statistically significant reduction,–
> 128 µg/mL,> 128 µg/mL,–,–,"COC(=O)[C@H](Cc1ccc(O)cc1)NCc1cc2ccccc2nc1OC [Compound 20, Methyl ((2-Methoxyquinolin-3-yl)methyl)-L-tyrosinate]",–,–
> 128 µg/mL,> 128 µg/mL,not active,–,"COC(=O)[C@H](Cc1ccc(O)cc1)NCc1cc2ccccc2nc1OCc1ccccc1 [Compound 21, Methyl ((2-(Benzyloxy)quinolin-3-yl)methyl)-L-tyrosinate]",–,–
> 128 µg/mL,> 128 µg/mL,–,–,"COC(=O)[C@@H](Cc1c[nH]cn1)NCc1cc2ccccc2nc1OC [Compound 23, Methyl ((2-Methoxyquinolin-3-yl)methyl)-D-histidinate]",–,–
–,–,–,–,(E)-2-(2-((2-Methoxyquinolin-3-yl)methylene)hydrazineyl)-4-phenylthiazole [Compound 13],–,"WTPA MIC [2, 6]: >128 µg/mL; MSSA MIC [1, 6]: >128 µg/mL"

Compound,MIC [1],MIC [2],inhibition of PA ATP synthase (in words) (PA ATP synthase),extent of inhibition of ATP synthesis activity at highest concentration (PA ATP synthase),reduction of PA growth when co-dosed with pentamidine (in words) (PA [5]),further results
"COC(=O)[C@@H](NCc1cc2ccccc2nc1OCc1ccccc1)C(C)C [Compound 15, Methyl ((2-(Benzyloxy)quinolin-3-yl)methyl)-L-valinate]",> 128 µg/mL,> 256 µg/mL,dose-dependent inhibition; also recorded: active,not complete,no significant reduction in growth,–
"COC(=O)[C@H](Cc1ccc(O)cc1)NCc1cc2ccccc2nc1SC [Compound 22, Methyl ((2-(Methylthio)quinolin-3-yl)methyl)-L-tyrosinate]",> 128 µg/mL,> 256 µg/mL,dose-dependent inhibition; also recorded: active; also recorded: strongest activity,complete inhibition,statistically significant reduction,–
